Earlier results in Sander's compilation of Henry's law constants (doi:10.1021/je049850a).

Assay: Henry solubility constant Hcp at 298.15 K (mol/(m3 Pa))
Details: reference: Plyasunov et al. (2004); cited value

Row | Henry solubility constant Hcp | Structure (SMILES)
1 | 0.02 | CC(=O)OCCC(C)C [3-methylbutyl ethanoate]
2 | 0.012 | CCCCCCCCCC(=O)OCC [ethyl decanoate]
3 | 0.012 | CC(C)CCOC=O [3-methylbutyl methanoate]
4 | 0.019 | CCCCCC(=O)OCC [ethyl hexanoate]
5 | 0.016 | CCCCOC(=O)CCC [butyl butanoate]
6 | 0.023 | CCCCC(=O)OCC [ethyl pentanoate]
7 | 0.063 | CCOC(C)=O [ethyl ethanoate]
8 | 0.014 | CCOC(=O)CC(C)C [ethyl 3-methylbutanoate]
9 | 0.029 | CCCOC(=O)CC [propyl propanoate]
10 | 0.023 | CCC(C)OC(C)=O (stereo not drawn) [2-butyl ethanoate]
11 | 0.018 | CCC(=O)OC(C)C [isopropyl propanoate]
12 | 0.026 | COC(=O)C(C)C [methyl 2-methylpropanoate]
13 | 0.035 | CCOC=O [ethyl methanoate]
14 | 0.026 | CCCCCC(=O)OC [methyl hexanoate]
15 | 0.011 | CC(=O)OC(C)(C)C [1,1-dimethylethyl ethanoate]
16 | 0.012 | CCCCCCCC(=O)OC [methyl octanoate]
17 | 0.018 | CCCC(=O)OC(C)C [2-propyl butanoate]
18 | 0.055 | CCC(=O)OC [methyl propanoate]
19 | 0.022 | CCCOC(=O)CCC [propyl butanoate]
20 | 0.024 | CC(=O)OCC(C)C [2-methylpropyl ethanoate]
21 | 0.02 | CCCCOC(=O)CC [butyl propanoate]
22 | 0.019 | CCCCCOC(=O)CC [pentyl propanoate]
23 | 0.015 | CCC(=O)OCC(C)C [(2-methylpropyl)-propanoate]

The remaining lines, values behind:

Row | Structure (SMILES) | Henry solubility constant Hcp
24 | COC(=O)C(C)(C)C [methyl 2,2-dimethylpropanoate] | 0.0095
25 | CC(C)COC(=O)C(C)C [2-methylpropyl 2-methylpropanoate] | 0.0078
26 | CCCCCCCCC(=O)OC [methyl nonanoate] | 0.0082
27 | CCCCC(=O)OC [methyl pentanoate] | 0.03
28 | CCCOC(C)=O [propyl ethanoate] | 0.045
29 | CCCCOC(C)=O [butyl ethanoate] | 0.035
30 | CCCCOC=O [butyl methanoate] | 0.019
31 | CC(C)OC=O [isopropyl methanoate] | 0.019
32 | CCOC(=O)C(C)(C)C [ethyl 2,2-dimethylpropanoate] | 0.0057
33 | CCOC(=O)C(C)CC (stereo not drawn) [ethyl 2-methylbutanoate] | 0.014
34 | CCCCCOC=O [pentyl methanoate] | 0.016
35 | CCCC(=O)OCC [ethyl butanoate] | 0.029
36 | CCCCOC(=O)CCCC [butyl pentanoate] | 0.0098
37 | CCOC(=O)C(C)C [ethyl 2-methylpropanoate] | 0.017
38 | CC(C)COC=O [(2-methylpropyl)-methanoate] | 0.016
39 | CCCOC=O [propyl methanoate] | 0.028
40 | CCCCCCOC(C)=O [hexyl ethanoate] | 0.017
41 | CCCC(=O)OC [methyl butanoate] | 0.042
42 | CCOC(=O)CC [ethyl propanoate] | 0.041
43 | CCCCCCOC=O [hexyl methanoate] | 0.01
44 | CC(=O)OC(C)C [2-propyl ethanoate] | 0.033
45 | CCCCCCC(=O)OC [methyl heptanoate] | 0.018
46 | CCCCCCCC(=O)OCC [ethyl octanoate] | 0.017
47 | COC(C)=O [methyl ethanoate] | 0.081
48 | CCCCCOC(C)=O [pentyl ethanoate] | 0.027
